This is an account of results in ChEMBL document CHEMBL4304807, “Modulators of KEAP-1 Activity as Potential Therapies for the Treatment of Neurodegenerative Disorders” (ACS Med Chem Lett, 2019).

The experiment addresses Kelch-like ECH-associated protein 1 (Homo sapiens, UniProt Q14145). In words: Inhibition of KEAP1 interaction with Nrf2 in human HEK293 cells transfected with ARE-LUC assessed as activation of Nrf2 signaling pathway measured after 18 hrs by steady-Glo luciferase assay. Format: cell-based.

Kelch-like ECH-associated protein 1, sequence (Q14145 whole entry): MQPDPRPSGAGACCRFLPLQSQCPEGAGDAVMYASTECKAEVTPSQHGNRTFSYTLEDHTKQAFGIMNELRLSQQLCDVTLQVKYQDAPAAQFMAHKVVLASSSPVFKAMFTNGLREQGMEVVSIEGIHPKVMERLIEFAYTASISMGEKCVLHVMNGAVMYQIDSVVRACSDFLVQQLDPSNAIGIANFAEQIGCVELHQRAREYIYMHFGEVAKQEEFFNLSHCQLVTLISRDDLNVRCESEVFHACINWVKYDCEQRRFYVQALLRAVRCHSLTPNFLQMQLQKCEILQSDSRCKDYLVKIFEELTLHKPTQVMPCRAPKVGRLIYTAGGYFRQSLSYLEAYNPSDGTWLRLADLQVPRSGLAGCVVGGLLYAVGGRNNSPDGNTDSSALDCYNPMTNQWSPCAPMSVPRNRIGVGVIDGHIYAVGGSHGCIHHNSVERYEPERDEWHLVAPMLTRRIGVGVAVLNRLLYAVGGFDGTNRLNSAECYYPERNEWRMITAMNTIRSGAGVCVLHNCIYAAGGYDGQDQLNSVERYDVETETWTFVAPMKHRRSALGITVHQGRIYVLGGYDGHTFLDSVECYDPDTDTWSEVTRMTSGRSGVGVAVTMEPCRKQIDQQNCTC

The term EC50 denotes the concentration at which the effect is half-maximal. For the molecule `COC1(c2ncc(F)cc2C(F)F)C=C(C#N)C(=O)C2(CC2)C1` (centres undefined), the EC50 stood at 0.018 µM. The same measure for `COC1(c2ncccc2C(F)(F)F)C=C(C#N)C(=O)C(C)(C)C1` (centres undefined): 0.024 µM.

Turning to `COC1(c2ncc(F)cc2OC(F)F)C=C(C#N)C(=O)C(C)(C)C1` (centres undefined), the EC50 is 0.008 µM. Regarding `COC1(c2ncc(F)cc2-c2cnc(C)s2)C=C(C#N)C(=O)C(C)(C)C1` (centres undefined), the EC50 was 0.007 µM.
